Publication PMC7617869, “Molecular glues that inhibit deubiquitylase activity and inflammatory signaling” (Nature Structural & Molecular Biology, 2025)
Values joined by “and” are separate entries in the source; they are usually repeats but may differ in a detail not shown here. Equal values may be shown once.

Columns and labels:
[1] = test system: trypsin; assay: Trypsin IQF diubiquitin selectivity assay; format: biochemical; conditions: for Normalised V0: Fig. 1e, Trypsin; for TRYPSIN, normalised activity (Ext. 1a): two replicate columns
Description: BRISC DUB activity was measured at room temperature using 1 nM BRISC and 500 nM IQF diubiquitin K63 substrate (LifeSensors, DU6303) in the presence of DMSO and compounds at 10 μM (final concentrations). Assays were performed in 384-well black flat-bottom low-flange plates (Corning, 35373) in buffer containing 50 mM HEPES–NaOH pH 7.0, 100 mM NaCl, 1 mg ml^−1 BSA, 1 mM DTT and 0.03% v/v Brij-35. Then, 10 μl of twofold concentrated enzyme stock was dispensed, followed by transfer of 200 nl of compounds (1 mM stock) using a 384-pin tool and a 15-min incubation at room temperature. Then, 10 μl of twofold concentrated substrate stock was added and the reaction was monitored by measuring fluorescence intensity (excitation, 540 nm; emission, 580 nm) after 20-min incubation at room temperature and ~50% of substrate was consumed. Orthogonal assays for verification of H20 and P12 hit compounds using USP2 (100 nM) and trypsin (125 nM) were performed in identical conditions.
(§1) IQF assays were performed in DUB reaction buffer containing 50 mM HEPES–NaOH pH 7.0, 100 mM NaCl, 0.1 mg ml^−1 BSA, 1 mM DTT and 0.03% v/v Brij-35. […] The final concentration of BRISC WT, all BRISC mutants, HsBRISCΔLoop, MmBRISC and DrBRISCΔNΔC was 1 nM. Other enzymes were tested at the following concentrations: 5 nM ARISC (FL), 10 nM CfBRISCΔNΔC, 250 nM AMSH* (ref. [43]), 500 nM USP2 and 1 μM trypsin (Sigma, 9002-07-7). For Michaelis–Menten experiments, 1 nM BRISC with 0–1 μM IQF K63-linked diubiquitin substrate was used. Michaelis–Menten analyses and Lineweaver–Burk plots were calculated using GraphPad Prism (version 9.0).
(§2) To assess enzymatic activity, BRISC complexes were diluted to concentrations between 1 nM and 50 nM. […] Then, 20-μl enzyme reactions were carried out in 384-well black flat-bottom low-flange plates (Corning, 35373). DUB activity was measured using IQF K63-linked diubiquitin (LifeSensors, DU6303) at 50 nM. Cleaved diubiquitin was monitored by measuring fluorescence intensity (excitation, 544 nm; emission, 575 nm; dichroic mirror, 560 nm). Fluorescence intensity was measured every minute for 30 min at 30 °C. Fluorescence intensity units were plotted against time to generate a linear reaction progress curve, where the initial velocity (V0) corresponds to the gradient of the curve (typically achieved within 15 min). IC50 values were calculated using the GraphPad Prism (version 9.0) built-in dose–response equation for inhibitor concentration versus response (variable slope).

[2] = molecular target: T1, BRISC (FL) / BRISCΔNΔC (Homo sapiens, UniProt P46736+Q15018+Q9NXR7); assay: Mass photometry of BRISC dimer formation; conditions: for Dimer fraction: 50 nM BRISCΔNΔC
T1 construct: BRISCΔNΔC (MERIT40ΔN, Abraxas 2ΔC); made in house; host or cells: Spodoptera frugiperda Sf9 insect cells (MultiBac)
Description: Immediately before mass photometry measurement, the BRISC–inhibitor mix was diluted in 25 mM HEPES pH 7.5, 150 mM NaCl and 1 mM TCEP to 10 nM BRISC ([…]). Then, 12 μl of the diluted sample was used for the final mass photometry measurement, following autofocus stabilization. […] Next, 0.5 μl of inhibitor was mixed with 19.5 μl of 50 nM BRISCΔNΔC (2.5% v/v DMSO) and incubated at room temperature for 15 min. The BRISC–inhibitor mix was used directly for mass photometry measurement using buffer-free autofocus stabilization.
Microscope coverslips were prepared according to an established protocol. Experiments were performed using a OneMP mass photometer (Refeyn). Videos were recorded for 60 s using AcquireMP (Refeyn) and processed using DiscoverMP (Refeyn). Mass photometry image processing was previously described. Briefly, contrast-to-mass (C2M) calibration was performed using protein standards (66–669 kDa) diluted in buffer (25 mM HEPES pH 7.5, 150 mM NaCl and 1 mM TCEP). […] The mass distribution from each run was in the form of a histogram, where the count refers to each landing event and a Gaussian sum is fitted to the data. The relative amount of each species was calculated as the area of each Gaussian, where σ refers to the s.d. of the fitted Gaussian. The dimer fraction refers to the percentage of the total counts corresponding to the 564-kDa BRISCΔNΔC dimer complex. Curves and half-maximal effective concentration values were fitted and calculated using the GraphPad Prism (version 9.0) built-in dose–response equation for concentration of agonist versus response (variable slope).

[3] = test system: AMSH* (a STAM2–AMSH fusion); assay: AMSH* IQF DUB activity assay; format: biochemical; conditions: for Normalised V0: Fig. 1e, AMSH*
Description: as §1, §2

Dimer fraction ([2]; [Inhibitor (μM)] 5000): 0.32 and 0.27 and 0.22
Dimer fraction ([2]; [Inhibitor (μM)] 10000): 0.35 and 0.32 and 0.21
Compound: O=C(NC1CCNCC1)c1nn(C(=O)c2c(Cl)cccc2Cl)cc1NC(=O)c1c(Cl)cccc1Cl [JMS-175-2]
Normalised V0 ([1]; JMS-175-2 0.02 μM): 1.129 and 1.522 and 0.9592
Normalised V0 ([1]; JMS-175-2 0.0399999 μM): 1.059 and 1.128 and 0.891
Normalised V0 ([1]; JMS-175-2 0.0599997 μM): 1.053 and 1.443 and 1.028
Normalised V0 ([1]; JMS-175-2 0.0799994 μM): 1.079 and 1.241 and 1.027
Normalised V0 ([1]; JMS-175-2 0.119998 μM): 1.132 and 1.572 and 1.058
Normalised V0 ([1]; JMS-175-2 0.199996 μM): 1.063 and 1.165 and 0.9014
Normalised V0 ([1]; JMS-175-2 0.499975 μM): 1.046 and 1.263 and 0.9518
Normalised V0 ([1]; JMS-175-2 0.799936 μM): 1.084 and 1.3 and 1.031
Normalised V0 ([1]; JMS-175-2 1.25984 μM): 1.117 and 1.247 and 0.9792
Normalised V0 ([1]; JMS-175-2 1.9996 μM): 1.2322 and 1.34 and 0.9526
Normalised V0 ([1]; JMS-175-2 3.159 μM): 1.104 and 1.275 and 0.8695
Normalised V0 ([1]; JMS-175-2 5.19739 μM): 1.019 and 1.261 and 1.016
Normalised V0 ([1]; JMS-175-2 7.99364 μM): 1.1 and 1.362 and 0.8881
Normalised V0 ([1]; JMS-175-2 12.7839 μM): 1.055 and 1.3161 and 0.9778
Normalised V0 ([1]; JMS-175-2 19.96 μM): 1.0605 and 1.284 and 0.9014
Normalised V0 ([1]; JMS-175-2 31.4999 μM): 1.012 and 1.285 and 0.8918
Normalised V0 ([1]; JMS-175-2 50.147 μM): 0.965 and 1.142 and 0.7769
Normalised V0 ([1]; JMS-175-2 79.7601 μM): 0.9096 and 1.115 and 0.8428
Normalised V0 ([1]; JMS-175-2 125.99 μM): 0.8068 and 0.9447 and 0.6574
Normalised V0 ([1]; JMS-175-2 199.922 μM): 0.6351 and 0.815 and 0.623
TRYPSIN, normalised activity (Ext. 1a) ([1]; log [compound (μM)] 0.1938, listed as H20): 1.0307 and 1.0157
TRYPSIN, normalised activity (Ext. 1a) ([1]; log [compound (μM)] 0.4949, listed as H20): 1.0959 and 1.0924
TRYPSIN, normalised activity (Ext. 1a) ([1]; log [compound (μM)] 0.7959, listed as H20): 1.0739 and 0.9776
TRYPSIN, normalised activity (Ext. 1a) ([1]; log [compound (μM)] 1.0969, listed as H20): 1.0282 and 0.9851
TRYPSIN, normalised activity (Ext. 1a) ([1]; log [compound (μM)] 1.3979, listed as H20): 0.9308 and 0.8423
TRYPSIN, normalised activity (Ext. 1a) ([1]; log [compound (μM)] 1.6990, listed as H20): 0.8444 and 0.8335
TRYPSIN, normalised activity (Ext. 1a) ([1]; log [compound (μM)] 2.0000, listed as H20): 0.8160 and 0.6662
TRYPSIN, normalised activity (Ext. 1a) ([1]; log [compound (μM)] 2.3010, listed as H20): 0.6941 and 0.5461
TRYPSIN, normalised activity (Ext. 1a) ([1]; log [compound (μM)] -0.1072, listed as H20): 1.2914 and 1.0218
TRYPSIN, normalised activity (Ext. 1a) ([1]; log [compound (μM)] -0.4082, listed as H20): 1.0017 and 0.9864
TRYPSIN, normalised activity (Ext. 1a) ([1]; log [compound (μM)] -0.7093, listed as H20): 0.9551 and 0.9457
TRYPSIN, normalised activity (Ext. 1a) ([1]; log [compound (μM)] -1.7100, normalisation point): 1.0000
dimer formation with increasing inhibitor concentration (mass photometry) [2]: dose-dependent increase in dimer formation
inhibition of AMSH* [3]: did not inhibit
Normalised V0 ([3]; JMS-175-2 0.02 μM): 0.9388 and 1.234 and 1.0263
Normalised V0 ([3]; JMS-175-2 0.0399999 μM): 1.025 and 1.209 and 1.056
Normalised V0 ([3]; JMS-175-2 0.0599997 μM): 0.9933 and 1.1324 and 1.071
Normalised V0 ([3]; JMS-175-2 0.0799994 μM): 0.9897 and 1.213 and 1.205
Normalised V0 ([3]; JMS-175-2 0.119998 μM): 0.9691 and 1.214 and 1.014
Normalised V0 ([3]; JMS-175-2 0.199996 μM): 1.015 and 1.194 and 1.011
Normalised V0 ([3]; JMS-175-2 0.499975 μM): 0.9952 and 1.163 and 1.175
Normalised V0 ([3]; JMS-175-2 0.799936 μM): 1.012 and 1.167
Normalised V0 ([3]; JMS-175-2 1.25984 μM): 0.9861 and 1.185 and 1.256
Normalised V0 ([3]; JMS-175-2 1.9996 μM): 0.9727 and 1.04 and 1.202
Normalised V0 ([3]; JMS-175-2 3.159 μM): 1.015 and 1.159 and 1.047
Normalised V0 ([3]; JMS-175-2 5.19739 μM): 1.314 and 1.221 and 1.023
Normalised V0 ([3]; JMS-175-2 7.99364 μM): 1.059 and 1.183 and 1.085
Normalised V0 ([3]; JMS-175-2 12.7839 μM): 0.9322 and 1.462 and 1.072
Normalised V0 ([3]; JMS-175-2 19.96 μM): 0.9939 and 1.127 and 1.08
Normalised V0 ([3]; JMS-175-2 31.4999 μM): 1.033 and 1.252 and 1.115
Normalised V0 ([3]; JMS-175-2 50.147 μM): 0.9855 and 1.172 and 0.9587
Normalised V0 ([3]; JMS-175-2 79.7601 μM): 0.8988 and 1.1324 and 1.1315
Normalised V0 ([3]; JMS-175-2 125.99 μM): 0.8758 and 1.102 and 0.8516
Normalised V0 ([3]; JMS-175-2 199.922 μM): 0.8346 and 1.096 and 1.031
